Laboratory results reported in patent US20200030388A1, “COMPOSITIONS FOR MODIFYING GUT MICROBIOTA” (priority 2017, published 2020).
Values joined by “and” are separate entries in the source; they are usually repeats but may differ in a detail not shown here. Identical values can stand only once. Marks after values point to notes of the source that are not given here.

Experiments:
[1] = tested on: HFD-Induced Obese Mice (C57BL/6); assay: GAR, FOR, LMIX, HMIX in HFD-induced obese mice, 12 weeks (Example 4)
Experimental: Four-week-old, male C57BL/6 mice were purchased from the BioLASCO Experimental Animal Center (Taiwan Co., Ltd., Taipei, Taiwan) and housed in a controlled atmosphere (25±1° C. at 50% relative humidity) with a 12 h light/12 h dark cycle. After 1 week of acclimation, animals were randomly distributed into 6 groups as follows: normal diet (ND, 15% energy from fat), high-fat diet (HFD, 50% energy from lard-based fat), and HFD supplemented with 0.01% garcinol (GAR group), 0.025% Forskolin (FOR group), 0.005% GAR+0.025% FOR (LMIX group), and 0.01% Gar+0.025% For (HMIX group) for 12 weeks. […] Animals had free access to food and water. Food consumption was monitored daily and the body weight was recorded weekly. At the end of the experiments, all animals were sacrificed by CO2 asphyxiation. Blood samples were collected from the heart for biochemical analysis. The liver, spleen, kidney, fat pads (perigonadal, retroperitoneal, and mesenteric fat), and fresh fecal pellets were immediately removed and stored at −80° C. until further analysis.
Liver and the perigonadal adipose tissue were dissected and fixed in 10% buffered formalin for at least 24 h, dehydrated with a sequence of ethanol solutions, and processed for embedding in paraffin. Sections of 4 μm in thickness were cut, deparaffinized, rehydrated, stained with hematoxylin and eosin (H&E), and subjected to photo microscopic observation. Adipocyte size was measured at 100× magnification and determined by Image J software (U. S. National Institutes of Health, Bethesda, Md., USA).

[2] = tested on: High Fat Diet Induced Obesity in C57 Mice; assay: High fat diet induced obesity in C57 mice, 16 weeks (Example 1); assay type: in vivo, mouse; details: for Change in weight / Final weight / Kidney weight / Pancreas Weight / Spleen Weight / Mesenteric Fat / Peri-gonadal Fat / Retroperitoneal Fat: HFD; for Change in weight / Final weight / Mesenteric Fat / Peri-gonadal Fat / Retroperitoneal Fat: 120 days
Experimental: C57/BL6 mice, 6-8 weeks of age and 8 animals/Group (4 Male and 4 Female) were used for the study. Animals were housed under standard laboratory conditions, air-conditioned with adequate fresh air supply (12-15 Air changes per hour), room temperature 20.2-23.5° C. and relative humidity 58-64% with 12 hours fluorescent light and 12 hours dark cycle. The temperature and relative humidity was recorded once daily.
The animals were fed with Normal diet (9 kcal/day) and High fat diet (50 kcal/day) throughout the acclimatization and experimental period.
The design of the study groups is depicted in table 2.
Body weight of the animals was recorded in all the days of experimental period. At the end of the experimental period, the animals were sacrificed by cervical dislocation. Blood was collected and Serum was separated by centrifugation and used for the analysis of biochemical parameters. The organs such as Liver Kidney, Spleen and Pancreas and Fat Tissues (Retroperitoneal, Peri-gonadal and Mesenteric) were dissected out and washed in phosphate buffered saline.
The following parameters were measured in the above groups: • Measurement of Body weight • Determination of Organ Weight • Estimation of Cholesterol (Zak et al., ([…]) A new method for the determination of serum cholesterol. J Clin Endocrinol Metab., 94(7), 2215-2220) • Estimation of Triglycerides (Foster L. B and Dunn R. T. (1973) Stable reagents for determination of serum triglycerides by a colorimetric Hantzsch condensation method. Clin Chem. 196, 338-340). • Estimation of HDL Cholesterol (Burstein et al., (1970). Determination of HDL cholesterol. J. lipid Res., 11, 583). • Determination of LDL and VLDL (Friedewald et al., (1972) Estimation of the concentration of Low Density Lipoprotein cholesterol in plasma without use of preparative centrifuge. J. Clin Chem.; 18:499).

[3] = tested on: HFD-induced Obesity in C57BL/6 mice; assay: HFD-induced obesity in C57BL/6 mice, 13 weeks (Example 2); assay type: in vivo, mouse; details: for GPT / HDL / LDL / LDL/HDL / T-CHO / TG: plasma; for percentage frequency of adipocytes, Adipocyte Size area 2000 / percentage frequency of adipocytes, Adipocyte Size area 15000 / percentage frequency of adipocytes, Adipocyte Size area >350000: perigonadal adipose tissue
From the text: After one week of acclimation, animals were randomly distributed into normal diet (ND, 15% energy as fat), HFD (50% energy as fat), and HFD with 0.1% or 0.5% garcinol groups of eight mice in each group for 13 weeks. The experimental diets were modified from the Purina 5001 diet (LabDiet, PMI Nutrition International, St. Louis, Mo., USA). The animals had ad libitum access to food and water. Food cups were replenished with a fresh diet every day. […] Upon termination of the study, the animals were sacrificed by CO2 asphyxiation and dissected, and the weights of their whole bodies and selected tissues, including the liver, kidney, spleen, adipose tissues (perigonadal, retroperitoneal, and mesenteric fat) and serum were immediately collected, weighed, and photographed.
Sections of 3-5 μm in thickness were cut, deparaffinized, rehydrated, stained with H&E, and subjected to photomicroscopic assessment. Adipocyte size was determined using Image J software (Rasband, W. S., ImageJ, U.S. National Institutes of Health, Bethesda, Md., USA).
Blood samples were collected from the left ventricle under anesthesia. The samples were mixed in 10 μL of heparin sodium and centrifuged at 3500 rpm and 4° C. for 10 min. The plasma was then stored at −80° C. until use. Glutamic-pyruvic transaminase (GPT), total cholesterol (TC), TG, high-density lipoprotein (HDL), and low-density lipoprotein (LDL) levels were analyzed at the National Laboratory Animal Center, NLAC (Taipei, Taiwan) on a 7080 Biochemical Analyzer (Hitachi, Tokyo, Japan) according to the manufacturer's instructions.

[4] = tested on: Gut Microbiota in HFD-Fed Mice; assay: Gut microbiota classification by next generation sequencing (Example 4); assay type: in vivo, mouse
Experimental: Total DNA was extracted from fresh fecal samples by using the innuPREP Stool DNA kit (Analytik Jena AG, Jena, Germany) according to the manufacturer's instructions. According to the concentration, DNA was diluted to 1 ng μ L^−1 using sterile water. 6SrRNA/18SrRNA/ITS genes of distinct region (16SV4/16SV3/16SV3-V4/16SV4-V5, 18S V4/18S V9, ITS1/ITS2, Arc V4) were amplified using a specific primer (e.g. 16SV4: 515F-806R, 18S V4: 528F-706R, and 18S V9: 1380F-1510R) with a barcode. All PCR reactions were carried out using a Phusion® High-Fidelity PCR master mix (New England Biolabs, Ipswich, Mass., USA). The PCR products were mixed in ratios of equal density. Then, the mixed PCR products were purified using a Qiagen gel extraction kit (Qiagen, Hilden, Germany). Sequencing libraries were generated using the TruSeq® DNA PCR-free sample preparation kit (Illumina, San Diego, Calif., USA) following the manufacturer's recommendations, and index codes were added. The library quality was assessed using the Qubit@ 2.0 Fluorometer (Thermo Scientific) and Agilent Bioanalyzer 2100 system. Lastly, the library was sequenced using an Illumina HiSeq 2500 platform, and 250 bp paired-end reads were generated. The classification was based on the Greengenes database (https://greengenes.lbl.gov/).

[5] = tested on: HFD-fed C57BL/6 male mice; assay: Garcinol versus garcinol blend in HFD-fed C57BL/6 mice, 16 weeks (Example 3); assay type: in vivo, mouse
Experimental: The present invention studied the anti-obesity effects of garcinol compared to a composition comprising garcinol, pterostilbene and anthocyanin (garcinol blend (GB) in mammals. The study was conducted in vivo on 5 weeks old C57BL/6 male mice. A total of 42 mice were involved in this study with 6 groups of 7 mice each. The groups were divided as in table 8.
The high fat diet (HFD) groups were fed 45% high fat diet for 16 weeks for the induction of obesity and concurrently administered the test substance as indicated in the aforesaid table. The normal group was fed with normal diet for 16 weeks.
Body weight was monitored weekly, and the average body weight of each group (n=7) was expressed as the means±SE.

[6] = tested on: Mouse 3T3-L1 pre-adipocytes; assay: Adipogenesis inhibition in 3T3-L1 cells, Oil red O staining; assay type: cell-based; details: 3T3-L1 adipocytes, read-out: inhibition of lipid accumulation
Experimental: Garcinol (20%) stock of 10 mg/ml was prepared in DMSO and filtered through 0.2 micron syringe filter. Stock was diluted 1000 times in DMEM to get 10 μg/ml final concentration and serially diluted. Insulin (Hi Media) was bought as a solution at a concentration of 20 mg/ml. This was diluted to 1 μg/ml in DMEM. IBMX-(Sigma)—Stock of 5 mM was prepared in DMEM, and diluted 10 times to be used at a final concentration of 0.5 mM. Dexamethasone (Sigma)—A stock of […] was prepared in DMEM and diluted 40 times to get a final concentration of 0.25 μM
Mouse 3T3-L1 pre-adipocytes were cultured in DMEM containing 25 mM glucose with 10% heat-inactivated fetal calf serum with antibiotics at 37° C. and 5% CO2. When the cells were 70-80% confluent, they were trypsinized, washed and seeded in 6 well plates at a density of 2×10^6 cells per well. Cells were induced to differentiate 2 d after reaching confluence (day 0), by supplementing DMEM media containing 10% Fetal Bovine Serum (FBS) along with 1 μg/mL insulin, 0.25 μM dexamethasone, 0.5 mM 1-methyl-3-isobutyl-xanthine (IBMX) and different concentrations of Garcinol (20%). From day 3 until day 7, cells were maintained in progression media supplemented with 1 μg/mL insulin and different concentrations of Garcinol (20%). […] Quantification for amount of triglycerides accumulated in adipocytes was done by Oil red O staining.

Kidney ([1]; organ weight): 0.4 ± 0.03^a g
Spleen ([1]; organ weight): 0.06 ± 0.01^a g
Kidney weight ([2]; Group III: garcinol 5 mg/kgbw): 0.49 ± 0.03 g wet tissue
Pancreas Weight ([2]; Group III: garcinol 5 mg/kgbw): 0.23 ± 0.01 g wet tissue
Spleen Weight ([2]; Group III: garcinol 5 mg/kgbw): 0.25 ± 0.02 g wet tissue
Kidney weight ([2]; Group IV: garcinol 10 mg/kgbw): 0.42 ± 0.03 g wet tissue
Pancreas Weight ([2]; Group IV: garcinol 10 mg/kgbw): 0.17 ± 0.01 g wet tissue
Spleen Weight ([2]; Group IV: garcinol 10 mg/kgbw): 0.20 ± 0.01 g wet tissue
Kidney weight ([2]; Group V: garcinol 20 mg/kgbw): 0.45 ± 0.06 g wet tissue
Pancreas Weight ([2]; Group V: garcinol 20 mg/kgbw): 0.21 ± 0.02 g wet tissue
Spleen Weight ([2]; Group V: garcinol 20 mg/kgbw): 0.22 ± 0.03 g wet tissue
Kidney weight ([2]; Group VI: garcinol 40 mg/kgbw): 0.42 ± 0.04 g wet tissue
Pancreas Weight ([2]; Group VI: garcinol 40 mg/kgbw): 0.22 ± 0.02 g wet tissue
Spleen Weight ([2]; Group VI: garcinol 40 mg/kgbw): 0.23 ± 0.02 g wet tissue
GPT ([3]; HFD + 0.1% Gar): 20.5 ± 7.26^b U/L
GPT ([3]; HFD + 0.5% Gar): 27.6 ± 3.72^ab U/L
SMILES: C=C(C)[C@@H](CC=C(C)C)C[C@@]12C[C@@H](CC=C(C)C)C(C)(C)[C@@](CC=C(C)C)(C(=O)C(C(=O)c3ccc(O)c(O)c3)=C1O)C2=O [garcinol]
Weight gain ([1]; 0.01% GAR, 0.025% FOR, LMIX, HMIX): 12.7 ± 2.0^b g
Final weight ([1]; 0.01% GAR, 0.025% FOR, LMIX, HMIX, listed as GAR): 34.4 g and 34.4 ± 2.6^b g
Liver ([1]; organ weight): 1.6 ± 0.2^b g
Change in weight ([2]; G5: garcinol 5 mg/kgbw): 10.03 ± 2.25 g
Final weight ([2]; G5: garcinol 5 mg/kgbw): 29.33 ± 1.47 g
Change in weight ([2]; G10: garcinol 10 mg/kgbw): 10.25 ± 1.39 g
Final weight ([2]; G10: garcinol 10 mg/kgbw): 28.25 ± 1.39 g
Change in weight ([2]; G20: garcinol 20 mg/kgbw): 7.62 ± 2.18 g
Final weight ([2]; G20: garcinol 20 mg/kgbw): 27.37 ± 1.88 g
Change in weight ([2]; G40: garcinol 40 mg/kgbw): 6.28 ± 1.03 g
Final weight ([2]; G40: garcinol 40 mg/kgbw): 26.00 ± 1.33 g
Mesenteric Fat ([2]; Group III: garcinol 5 mg/kgbw): 0.63 ± 0.07 g wet tissue
Peri-gonadal Fat ([2]; Group III: garcinol 5 mg/kgbw): 1.33 ± 0.32 g wet tissue
Retroperitoneal Fat ([2]; Group III: garcinol 5 mg/kgbw): 0.45 ± 0.06 g wet tissue
Mesenteric Fat ([2]; Group IV: garcinol 10 mg/kgbw): 0.56 ± 0.05 g wet tissue
Peri-gonadal Fat ([2]; Group IV: garcinol 10 mg/kgbw): 1.17 ± 0.22 g wet tissue
Retroperitoneal Fat ([2]; Group IV: garcinol 10 mg/kgbw): 0.43 ± 0.05 g wet tissue
Mesenteric Fat ([2]; Group V: garcinol 20 mg/kgbw): 0.601 ± 0.08 g wet tissue
Peri-gonadal Fat ([2]; Group V: garcinol 20 mg/kgbw): 1.35 ± 0.21 g wet tissue
Retroperitoneal Fat ([2]; Group V: garcinol 20 mg/kgbw): 0.46 ± 0.06 g wet tissue
Mesenteric Fat ([2]; Group VI: garcinol 40 mg/kgbw): 0.59 ± 0.05 g wet tissue
Peri-gonadal Fat ([2]; Group VI: garcinol 40 mg/kgbw): 1.41 ± 0.14 g wet tissue
Retroperitoneal Fat ([2]; Group VI: garcinol 40 mg/kgbw): 0.46 ± 0.04 g wet tissue
weight of the organs (adverse effects) ([2]; kidney, spleen, pancreas, Table 5): did not adversely affect
decrease of mesenteric fat weight compared to the HFD group ([3]; 0.5% garcinol, HFD, 13 weeks): 77.7%
decrease of perigonadal fat weight compared to the HFD group ([3]; 0.5% garcinol, HFD, 13 weeks): 85.1%
decrease of retroperitoneal fat weight compared to the HFD group ([3]; 0.5% garcinol, HFD, 13 weeks): 92.4%
HDL ([3]; HFD + 0.1% Gar): 152.6 ± 9.73^a mg/dL
LDL ([3]; HFD + 0.1% Gar): 33.3 ± 0.72^b mg/dL
LDL/HDL ([3]; HFD + 0.1% Gar): 0.22 ± 0.02^b
T-CHO ([3]; HFD + 0.1% Gar): 179.7 ± 11.85^b mg/dL
TG ([3]; HFD + 0.1% Gar): 69.6 ± 19.90^ab mg/dL
percentage frequency of adipocytes, Adipocyte Size area 2000 ([3]; HFD + 0.1% garcinol): 8.38 ± 5.3^b
percentage frequency of adipocytes, Adipocyte Size area 15000 ([3]; HFD + 0.1% garcinol): 4.03 ± 1.0^a
percentage frequency of adipocytes, Adipocyte Size area >350000 ([3]; HFD + 0.1% garcinol): 3.32 ± 1.5^b
HDL ([3]; HFD + 0.5% Gar): 118.7 ± 13.22^b mg/dL
LDL ([3]; HFD + 0.5% Gar): 24.9 ± 4.47^c mg/dL
LDL/HDL ([3]; HFD + 0.5% Gar): 0.21 ± 0.03^b
T-CHO ([3]; HFD + 0.5% Gar): 137.9 ± 11.78^c mg/dL
TG ([3]; HFD + 0.5% Gar): 55.6 ± 4.95^b mg/dL
percentage frequency of adipocytes, Adipocyte Size area 2000 ([3]; HFD + 0.5% garcinol): 19.2 ± 3.9^a
percentage frequency of adipocytes, Adipocyte Size area 15000 ([3]; HFD + 0.5% garcinol): 1.36 ± 0.9^b
percentage frequency of adipocytes, Adipocyte Size area >350000 ([3]; HFD + 0.5% garcinol): 0.00 ± 0.0^c
abundance of Firmicutes ([4]; 12 weeks (HFD group 43.0%)): 33.9%
abundance of Bacteroidetes ([4]; 12 weeks (HFD group 50.2%)): 62.4%
OTUs difference between ND and HFD groups (Venn diagram) ([4]; 12 weeks, FIG. 23A): 26 OTUs
Final weight ([5]; HFD + 0.1% test substance): 32.1 ± 2.6^b g
Weight gain ([5]; HFD + 0.1% test substance): 10.5 ± 2.1^b g
Final weight ([5]; HFD + 0.5% test substance): 25.4 ± 0.8^b g
Weight gain ([5]; HFD + 0.5% test substance): 3.9 ± 0.6^b g
inhibition at 5 µg/mL ([6]; 5 μg/ml): 47.8%
inhibition at 10 µg/mL ([6]; 10 μg/ml): 47.2%
